# In EP2601931A2, “Cosmetic use of 3-methyl-1-phenyl-5-pyrazolon” (Henkel AG&Co. KGAA, priority 2011, dated 2013):
# Experiments:
# Kollagen-Neusynthese = assay: Collagen neosynthesis: P1NP secreted into the medium of a fibroblast / 3D epidermis model co-culture; type: cell-based; settings: for P1NP: Co-Kultur-System, P1NP in medium, unbehandelt = 107
# Source text: Ein in der Kosmetik relevanter Parameter für die Anti-Aging-Leistung eines Produktes ist die Induktion der Kollagen-Neusynthese. […] Zum Nachweis der Kollagen-Neusynthese wurde ein Co-Kultur-System verwendet, das aus einer zweidimensionalen Fibroblasten-Kultur besteht, auf die in einem Insert ein dreidimensionales Epidermismodell aufgesetzt wurde. Über das Nährmedium kann ein Stoffaustausch zwischen den Fibroblasten und den Keratinocyten des Epidermismodells erfolgen. […] Als Kontrollen für die Syntheseinduktion wurden Retinsäure und Retinol eingesetzt.
# CYP26A1 = assay: RAMBA activity: change in CYP26A1 marker expression by qPCR in keratinocytes incubated with substance plus retinoic acid
# Source text: Verschiedene kosmetische Wirkstoffe, die zur Stoffklasse der Azole gerechnet werden können, wurden auf eine mögliche RAMBA-Aktivität hin untersucht. Zu diesem Zweck wurden humane Keratinocyaten für 16 Stunden mit den entsprechenden Substanzen in Kombination mit Retinsäure inkubiert und anschließend mittels qPCR die Expressionsänderung des Markers CYP26A1 verfolgt. Das Enzym CYP26A1 bewirkt die Metabolisierung der Retinsäure und wird durch die Retinsäure selber induziert, wodurch eine Feedbak-Regulation der Retinsäurekonzentration in der Zelle ermöglicht wird. […] Tabelle 1
Structure (SMILES),"P1NP (Kollagen-Neusynthese; 0,01%)",Induktion der Kollagensynthese (Kollagen-Neusynthese; result in words on Tabelle 2),"Rel. Expression CYP26A1 (CYP26A1; 0,01% in combination with Retinsäure (RA, 10nM), humane Keratinocyten, 16 Stunden, qPCR, ethanol control = 1,0)","RAMBA-Aktivität (CYP26A1; comparison with Ketokonazol, result in words on Tabelle 1)","Induktion von CYP26A1 (CYP26A1; in combination with Retinsäure, result in words on Tabelle 1)",P1NP (Kollagen-Neusynthese; 5µM),"Rel. Expression CYP26A1 (CYP26A1; keratinocytes, 16 h, 0.01 µM)"
CC1=NN(c2ccccc2)C(=O)C1 [3-Methyl-1-phenyl-5-pyrazolon],129 µg/mL,zeigen eine Induktion der Kollagensynthese,"1,3",in etwa die gleiche RAMBA-Aktivität wie Ketokonazol,deutlich vermindert,–,–
"CC1=C(/C=C/C(C)=C/C=C/C(C)=C/CO)C(C)(C)CCC1 [Retinol, reference compound]",–,–,–,–,–,146 µg/mL,–
"CC1=C(/C=C/C(C)=C/C=C/C(C)=C/C(=O)O)C(C)(C)CCC1 [Retinsäure, reference compound]",–,–,–,–,–,200 µg/mL,"37,6"
